One data set concerns PDE I. The data set can be described thus: PDE inhibition, type I PDE (cGMP substrate, calmodulin/CaCl2 added). The format is biochemical. The settings on record: PDE I from porcine hearts, cGMP 1 μM; read-out: Inhibition of PDE Isoenzymes (IC50) I. The protocol: (§1) The assays for PDE activity were conducted according to Nicholson et al. method (Br. J. Pharmacol., 97, 889 (1989)).
(§2) Among PDE isozymes, type I, II, III and IV PDEs as used herein were separated from porcine hearts by using an anion exchange chromatography. Type V PDE was also separated from porcine aortae with an anion exchange chromatography and used herein.
(§3) Each PDE isozyme was admixed with ethylene glycol (EG) to adjust the final EG concentration to 30%, then stored at −20° C. and diluted when used. The enzymatic activity for PDE I and V was measured using cGMP as a substrate while that for POE II, III and IV was measured using cAMP.
(§4) [^3H]-cAMP (962 GBq/mmol; Amersham, 25 μl (100,000 cpm)) or [^3H]-cGMP (962 GBq/mmol; Amersham, 25 μl (100,000 cpm)) was added together with each PDE isozyme (25 μl) to an incubation buffer solution with the composition given below to adjust the total volume to 250 μl. Each test compound was dissolved in DMSO to adjust the final concentration to 1% (2.5 μl/tube).
(§5) Incubation buffer solution (pH7.5):
(§6) Tris-HCl (50 mM), magnesium chloride (6 mM), dithiothreitol
(§7) (2.5 mM), 5-nucleotidase (4 μg/ml), bovine serum albumin
(§8) (0.23 mg/ml), and cAMP (1 μM) [or cGMP (1 μM)]
(§9) A mixture of the aforementioned test compound solution and the buffer solution was incubated at 30° C. for 20 minutes. The reaction was quenched by admixing with 1 ml of anion exchange resin slurry (AG1-X8, 200-400 meshes, chloride form; Bio-Rad) to absorb unreacted substrates.
(§10) After the reaction stopped, the mixture was centrifuged at 200×g for 10 minutes, and the resulting supernatant was collected with vials in 250 μl aliquots. To each vial was added 5 ml of ACS-II (scintillator, Amersham). The radioactivity was measured with a liquid scintillator counter for [^3H]-adenosine or [^3H]-guanosine and set as the PDE activity. The measurements were conducted under conditions wherein the enzymatic activity was elevated by adding calmodulin (20 U/ml; Amersham) and calcium chloride (0.1 mM) for PDE-I and cGMP (1 μM) for PDE II, respectively.
(§11) The % inhibition was calculated for test compounds, and IC50 (the concentration of each test compound required for 50% inhibition) was obtained by Probit method. The aforementioned rolipram ((−)-isomer, optical purity: 91% e.e.) known as the PDE IV inhibitor in the prior art was used for the reference compound in this assay.

In another data set the target is T1, PDE II (Sus scrofa, UniProt F1SUV3).
T1 sequence (F1SUV3 1-945): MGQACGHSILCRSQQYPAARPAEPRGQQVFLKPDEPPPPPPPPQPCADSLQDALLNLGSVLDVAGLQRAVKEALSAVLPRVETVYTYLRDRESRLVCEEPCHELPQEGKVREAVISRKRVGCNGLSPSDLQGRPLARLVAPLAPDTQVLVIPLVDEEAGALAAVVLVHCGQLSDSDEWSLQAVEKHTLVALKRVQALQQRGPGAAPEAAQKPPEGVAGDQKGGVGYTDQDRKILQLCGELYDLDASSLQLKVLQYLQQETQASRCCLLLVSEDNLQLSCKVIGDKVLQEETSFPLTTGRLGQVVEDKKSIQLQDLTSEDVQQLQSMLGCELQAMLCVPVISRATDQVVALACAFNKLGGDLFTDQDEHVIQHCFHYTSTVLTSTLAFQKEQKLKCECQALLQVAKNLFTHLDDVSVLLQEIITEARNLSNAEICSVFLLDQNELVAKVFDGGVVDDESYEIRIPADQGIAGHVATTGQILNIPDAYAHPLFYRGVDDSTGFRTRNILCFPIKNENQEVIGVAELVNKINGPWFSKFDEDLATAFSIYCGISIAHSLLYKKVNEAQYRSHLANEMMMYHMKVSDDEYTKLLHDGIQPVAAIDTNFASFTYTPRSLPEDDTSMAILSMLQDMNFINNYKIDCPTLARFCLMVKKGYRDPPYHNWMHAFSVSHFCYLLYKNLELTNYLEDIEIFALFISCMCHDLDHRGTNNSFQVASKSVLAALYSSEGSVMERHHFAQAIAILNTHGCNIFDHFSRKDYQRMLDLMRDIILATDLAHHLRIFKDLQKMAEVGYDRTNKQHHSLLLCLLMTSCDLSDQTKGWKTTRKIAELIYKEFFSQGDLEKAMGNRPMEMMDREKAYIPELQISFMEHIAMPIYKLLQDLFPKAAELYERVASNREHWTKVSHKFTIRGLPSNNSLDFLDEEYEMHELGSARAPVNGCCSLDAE
The data set can be described thus: PDE inhibition, type II PDE (cAMP substrate, cGMP added). The format is biochemical. The settings on record: PDE II from porcine hearts, cAMP 1 μM; read-out: Inhibition of PDE Isoenzymes (IC50) II. The protocol: as §1, §2, §3, §4, §5, §6, §7, §8, §9, §10, §11

A further data set relates to T2, PDE IV.
T2 construct: other: PDE IV from porcine hearts, cAMP 1 μM
The data set can be described thus: PDE inhibition, type IV PDE (cAMP substrate). The format is biochemical. As to conditions: PDE IV from porcine hearts, cAMP 1 μM; read-out: Inhibition of PDE Isoenzymes (IC50) IV. The protocol: as §1, §2, §3, §4, §5, §6, §7, §8, §9, §10, §11
Further, for a comparison with compounds as disclosed in JP, A, 63-159382 (1988), the PDE-inhibiting activity was also measured for Compounds A and D in Table 1 of JP, A, 63-159382 (1988).

The next data set has as its target T3, PDE V (Sus scrofa, UniProt A0A287B475).
T3 construct: Type V PDE was also separated from porcine aortae with an anion exchange chromatography and used herein
The data set can be described thus: PDE inhibition, type V PDE (cGMP substrate). The settings on record: PDE V from porcine aortae, cGMP 1 μM; read-out: Inhibition of PDE Isoenzymes (IC50) V. In kind it is biochemical. The protocol: as §1, §2, §3, §4, §5, §6, §7, §8, §9, §10, §11

A value given as a limit tells only on which side of the number the result lay.

`O=c1c(Cc2ccncc2)cc2cccnc2n1-c1cccc([N+](=O)[O-])c1` [Example 4, 1-(3-Nitrophenyl)-3-(pyridin-4-ylmethyl)-1,8-naphthyridin-2(1H)-one]: the melting point came to 230 °C.
The same measure, in the same setting: to `O=c1c(CCc2nc3ccccc3s2)cc2cccnc2n1-c1cccc([N+](=O)[O-])c1` [Example 29, 1-(3-Nitrophenyl)-3-[2-(benzothiazol-2-yl)ethyl]-1,8-naphthyridin-2(1H)-one] belongs 178 to 179 °C.
On the same count and under the same terms, to `O=c1c(CCCc2nccs2)cc2cccnc2n1-c1cccc([N+](=O)[O-])c1` [Example 31, 1-(3-Nitrophenyl)-3-[3-(thiazol-2-yl)propyl]-1,8-naphthyridin-2(1H)-one] belongs 198 to 199 °C.
On to `O=c1c(CCCCc2ccccn2)cc2cccnc2n1-c1cccc([N+](=O)[O-])c1` [Example No. 13, 1-(3-Nitrophenyl)-3-[4-(pyridin-2-yl)butyl]-1,8-naphthyridin-2(1H)-one], for which the melting point lay within 163 to 165 °C. For the same compound, the IC50 with PDE I came to 62 µM. In addition, at PDE II, the IC50 stood at 60 µM. In the data set with PDE IV, the IC50 worked out at 1.2 µM. Also, the IC50 on PDE V was 13 µM.
The matching figures for `O=c1c(CCCCCc2ccncc2)cc2cccnc2n1-c1cccc([N+](=O)[O-])c1` [Example No. 17, 1-(3-Nitrophenyl)-3-[5-(pyridin-4-yl)pentyl]-1,8-naphthyridin-2(1H )-one]: 188.8 to 189.6 °C, above 100 µM, above 100 µM, 2.2 µM and above 100 µM.
`O=c1c(CCCc2ccccn2)cc2cccnc2n1-c1cccc([N+](=O)[O-])c1` [Example 28, 1-(3-Nitrophenyl)-3-[3-(pyridin-2-yl)propyl]-1,8-naphthyridin-2(1H)-one] registered a melting point of 201 to 202 °C.
The compound `O=c1c(CCCCc2ccncc2)cc2cccnc2n1-c1cccc([N+](=O)[O-])c1` [Example No. 15, 1-(3-Nitrophenyl)-3-[4-(pyridin-4-yl)butyl]-1,8-naphthyridin-2(1H)-one] yielded a melting point of 168.8 to 169.6 °C. Further, the IC50 with PDE I stood at 100 µM. Further, the IC50 on PDE II worked out at 47 µM. The IC50 with PDE IV turned out to be 1.4 µM. The IC50 at PDE V amounted to 8.7 µM.
Consider `N#Cc1cccc(-n2c(=O)c(CCCc3ccncc3)cc3cccnc32)c1` [Example 25, 1-(3-Cyanophenyl)-3-[3-(pyridin-4-yl)propyl]-1,8-naphthyridin-2(1H)-one], for which the melting point lay in the range of 202 to 203.5 °C.
On the same count and under the same terms, next, `O=c1c(CCCc2ccncc2)cc2cccnc2n1-c1cccc(Cl)c1` [Example 9, 1-(3-Chlorophenyl)-3-[3-(pyridin-4-yl)propyl]-1,8-naphthyridin-2(1H)-one]: 148 to 149 °C; `O=c1c(CCCc2ccco2)cc2cccnc2n1-c1cccc([N+](=O)[O-])c1` [Example 20, 1-(3-Nitrophenyl)-3-[3-(2-furyl)propyl]-1,8-naphthyridin-2(1H)-one]: 166 to 167 °C.
Still for that read-out and setting: next, `O=c1c(CCCCc2nc3ccccc3s2)cc2cccnc2n1-c1cccc([N+](=O)[O-])c1` [Example 22, 1-(3-Nitrophenyl)-3-[4-(benzothiazol-2-yl)butyl]-1,8-naphthyridin-2(1H)-one]: 167.5 to 169.5 °C; `CS(=O)(=O)c1cccc(-n2c(=O)c(CCCc3ccncc3)cc3cccnc32)c1` [Example 26, 1-(3-Methylsulfonylphenyl)-3-[3-(pyridin-4-yl)propyl]-1,8-naphthyridin-2(1H)-one]: 127 to 131 °C; `O=c1c(Cc2ccccn2)cc2cccnc2n1-c1cccc([N+](=O)[O-])c1` [Example 1, 1-(3-Nitrophenyl)-3-(pyridin-2-ylmethyl)-1,8-naphthyridin-2(1H)-one]: 229 to 231 °C.
On the same count and under the same terms, next, `O=c1c(CCCc2nc3ccccc3s2)cc2cccnc2n1-c1cccc([N+](=O)[O-])c1` [Example 30, 1-(3-Nitrophenyl)-3-[3-(benzothiazol-2-yl)propyl]-1,8-naphthyridin-2(1H)-one]: 185 to 186 °C; `Cc1ccc2cc(CCCc3ccncc3)c(=O)n(-c3cccc([N+](=O)[O-])c3)c2n1` [Example 11, 7-Methyl-1-(3-nitrophenyl)-3-[3-(pyridin-4-yl)propyl]-1,8-naphthyridin-2(1H)-one]: 165 to 166 °C; `O=c1c(CCCc2ccoc2)cc2cccnc2n1-c1cccc([N+](=O)[O-])c1` [Example 21, 1-(3-Nitrophenyl)-3-[3-(3-furyl)propyl]-1,8-naphthyridin-2(1H)-one]: 185 to 186 °C.
On to `O=c1c(CCc2cccs2)cc2cccnc2n1-c1cccc([N+](=O)[O-])c1` [Example 19, 1-(3-Nitrophenyl)-3-[2-(2-thienyl)ethyl]-1,8-naphthyridin-2(1H)-one], for which the melting point is 175 to 176 °C.
Compound `N#Cc1cccc(-n2c(=O)c(Cc3ccncc3)cc3cccnc32)c1` [Example No. 3, 1-(3-Cyanophenyl)-3-(pyridin-4-ylmethyl)-1,8-naphthyridin-2(1H)-one] showed a melting point of 229 to 230 °C. The IC50 with PDE I is above 100 µM. For the same compound, on PDE II, the IC50 is above 100 µM. For the same compound, in the data set on PDE IV, the IC50 turned out to be 1.2 µM. Besides, the IC50 on PDE V was 3.9 µM.
Turning to `CSc1cccc(-n2c(=O)c(CCCc3ccncc3)cc3ccc(C)nc32)c1` [Example 12, 7-Methyl-1-(3-methylthiophenyl)-3-[3-(pyridin-4-yl)propyl]-1,8-naphthyridin-2(1H)-one], the melting point lay in the range of 158 to 159 °C.
The same measure, in the same setting: to `O=c1c(CCCCCCCc2ccncc2)cc2cccnc2n1-c1cccc([N+](=O)[O-])c1` [Example 18, 1-(3-Nitrophenyl)-3-[7-(pyridin-4-yl)heptyl]-1,8-naphthyridin-2(1H)-one] belongs 189 to 192 °C.

What is called melting point is the temperature of the solid-liquid transition. As usually defined, the IC50 is the concentration needed to halve the response being measured.

These data come from US6642250B2, “1,8-naphthyridin-2(1H)-one derivatives” (Grelan Pharmaceutical Co., Ltd., priority 1999, dated 2003).
